Drawing on ChEMBL document CHEMBL3351656, “Discovery of novel 2-[2-(3-hydroxy-pyridin-2-yl)-thiazol-4-yl]-acetamide derivatives as HIF prolyl 4-hydroxylase inhibitors; SAR, synthesis and modeling evaluation” (Bioorg Med Chem Lett, 2014), this text covers solubility for 18 molecules.

As usually defined, the solubility is the dissolved amount per volume that the medium holds. Low readings indicate a poorly soluble substance, high ones a readily soluble substance.

Values after ≈ are worked out from the molar mass of the structure shown.

A short description of the data set: Solubility of the compound at pH 7.4. The class given is physicochemical. Particulars: buffer.
`Cc1sc(-c2ncc(C#N)cc2O)nc1CC(=O)NCCc1ccccn1` displayed a solubility of 78.4 µg/mL (≈ 207 µM). As for `N#Cc1cnc(-c2nc(CC(=O)NCc3ccccc3)cs2)c(O)c1`, the figure is 24.1 µg/mL (≈ 68.8 µM).

On to `N#Cc1cnc(-c2nc(CC(=O)NCC(=O)O)cs2)c(O)c1`, for which the concentration in solution (solubility) came to 106 µg/mL (≈ 332 µM). `CC(C)(NC(=O)Cc1csc(-c2ncc(C#N)cc2O)n1)C(=O)O` showed a solubility of 28.9 µg/mL (≈ 83.4 µM). In turn, `N#Cc1cnc(-c2nc(CC(=O)N[C@H](C(=O)O)c3ccccc3)cs2)c(O)c1` showed a solubility of more than 195 µg/mL.

For the molecule `N#Cc1cnc(-c2nc(CC(=O)N[C@@H](C(=O)O)c3ccccc3)cs2)c(O)c1`, the solubility was more than 195 µg/mL. Next, `N#Cc1cnc(-c2nc(CC(=O)N[C@@H](CO)c3ccccc3)cs2)c(O)c1`: more than 188 µg/mL; `N#Cc1cnc(-c2nc(CC(=O)N[C@H](CO)c3ccccc3)cs2)c(O)c1`: more than 188 µg/mL; `N#Cc1cnc(-c2nc(CC(=O)NCCc3ccccc3)cs2)c(O)c1`: 13.6 µg/mL (≈ 37.3 µM). Next, `N#Cc1cnc(-c2nc(CC(=O)NCCc3ccccn3)cs2)c(O)c1`: more than 181 µg/mL; `N#Cc1cnc(-c2nc(CC(=O)NCCc3ccccn3)c(-c3ccccc3)s2)c(O)c1`: 117 µg/mL (≈ 265 µM); `Cc1c(C#N)cnc(-c2nc(CC(=O)NCCc3ccccn3)cs2)c1O`: 11.2 µg/mL (≈ 29.5 µM). Next, `Cc1sc(-c2ncc(C#N)c(C)c2O)nc1CC(=O)NCCc1ccccn1`: 6.4 µg/mL (≈ 16.3 µM); `Cc1c(C#N)cnc(-c2nc(CC(=O)NCCc3ccccn3)c(-c3ccccc3)s2)c1O`: 0.74 µg/mL (≈ 1.62 µM); `CCNC(=O)Cc1nc(-c2ncc(C#N)c(C)c2O)sc1C`: 13.9 µg/mL (≈ 43.9 µM). The molecule `N#Cc1cnc(-c2nc(CC(=O)N3CCCC3)cs2)c(O)c1` displayed a solubility of 108 µg/mL (≈ 342 µM). As for `CCN(CC)CCNC(=O)Cc1csc(-c2ncc(C#N)c(C)c2O)n1`, the solubility was more than 185 µg/mL. As for `CCN(CC)CCNC(=O)Cc1nc(-c2ncc(C#N)c(C)c2O)sc1C`, the figure is 85.9 µg/mL (≈ 222 µM).
